Tests used:
[1] = system: live cancer cell cultures; assay: Cytometric testing of the patient's cancer cells; format: cell-based, human; settings: for activity in cytometric testing: Example 14, incompletely resected pancreatic cancer; for sensitivity in cytometric testing: Example 18, ascites of metastatic carcinoma of the urachus
From the text: Also disclosed are methods for in vitro testing a drug combination on cancer cells of a subject for cancer cell survival, wherein the drug combination comprises tamoxifen, gefitinib, and vinorelbine. The in vitro testing can comprise administering tamoxifen and gefitinib prior to, together with, and/or after, administering vinorelbine. The in vitro testing can comprise measuring the cancer cell survival. Suitable in vitro tests and methods for measuring the cancer cell survival include Differential Staining Cytotoxicity Assay (DiSC), MTT assay, ATP assay, and fluorescein diacetate assay (FDA). MTT assay is a colorimetric assay for assessing cell metabolic activity. Cellular enzymes are capable of reducing the tetrazolium dye MTT 3-(4,5-dimethylthiazol-2-yl)-2,5-diphenyltetrazolium bromide to its insoluble formazan, which has a purple color. ATP assays are procedures that can measure cell viability based on detection of ATP. All living cells, including bacteria, can be detected with ATP assays. Several detection methods can be used, such as colorimetric, fluorescent and bioluminescent. FDA uses a cell-permeant esterase substrate fluorescein diacetate that can serve as a viability probe and that measures both enzymatic activity, which is required to activate its fluorescence, and cell-membrane integrity, which is required for intracellular retention of their fluorescent product.
Use of tamoxifen at a high dose of 80 milligrams per meter squared (the typical dose in conventional cancer treatment is 20 mg daily) and high dose of gefitinib (187 milligrams per meter squared twice daily for 3 days—the typical dose in conventional cancer treatment is 250 mg daily) has been found in cytometric testing using live cancer cell cultures to transport vinorelbine into the cancer cell, producing extraordinary synergy in causing programmed apoptosis in the cancer cells (programmed cancer cell death) while sparing much of the normal tissues and giving dramatic clinical outcomes.

[2] = system: squamous cell carcinoma of the breast; assay: TGV therapy case study, triple-negative squamous cell carcinoma of the breast (Example 11); format: in vivo, human; settings: person, before TGV
From the text: (§1) The 17 case studies represent patients with metastatic esophageal cancer, metastatic skin cancer, metastatic breast cancer, leptomeningeal breast cancer, metastatic prostate cancer, glioblastoma multiforme, lung cancer, bowel cancer, acute myelogenous leukemia, esthesioneuroblastoma, and urothelial cancer.

urothelial cancer = assay: TGV therapy case study, urothelial cancer (Example 17); format: in vivo, human; settings: person, before TGV (MVAC together with radiation therapy)
Method: as §1
A person with regionally advanced bladder cancer was presented with urothelial cancer in the trigone of their bladder. The patient was treated with radiation therapy and with dose dense MVAC (M—methotrexate, V—vinblastine, A—doxorubicin, C—Cisplatin). […] The patient was then treated with gemcitabine and cisplatin to which they had no response. The patient then had the retroperitoneal lymph nodes radiated to a complete response. The patient was followed monthly and when recurrent disease was discovered in the lung and mediastinum, they were started on Padcev® (Enfortumab vedotin), to which they had no response. The patient was then offered TGV. […] The patient had neutropenia within five days and was admitted. […] It was concluded that the patient should not be given repeated chemotherapy until their bone marrow had recovered.

Molecule	activity in cytometric testing [1]	sensitivity in cytometric testing [1]	response to prior chemotherapy [2]	response to prior therapy (urothelial cancer)
O=C1[O][Pt]2([NH][C@@H]3CCCC[C@H]3[NH]2)[O]C1=O [oxaliplatin]	no evidence of response	hypersensitivity	–	–
CC(=O)O[C@@]12CO[C@@H]1C[C@H](O)[C@@]1(C)C(=O)[C@H](O)C3=C(C)[C@@H](OC(=O)[C@H](O)[C@@H](NC(=O)OC(C)(C)C)c4ccccc4)C[C@@](O)([C@@H](OC(=O)c4ccccc4)[C@H]21)C3(C)C [Taxotere]	no evidence of response	–	refractory	–
Nc1ccn([C@@H]2O[C@H](CO)[C@@H](O)C2(F)F)c(=O)n1 [gemcitabine]	no evidence of response	hypersensitivity	–	–
O=P1(N(CCCl)CCCl)NCCCO1 (stereo not shown) [Cytoxan]	–	–	refractory	–
COc1cccc2c1C(=O)c1c(O)c3c(c(O)c1C2=O)C[C@@](O)(C(=O)CO)C[C@@H]3O[C@H]1C[C@H](N)[C@H](O)[C@H](C)O1 [Adriamycin]	–	–	refractory	–
Enfortumab vedotin [Padcev®]	–	–	–	no response
O=c1[nH]cc(F)c(=O)[nH]1 [5-fluorouracil]	no evidence of response	–	–	–
